According to article PMC8226474, “Design, Syntheses, and Bioevaluations of Some Novel N^2-Acryloylbenzohydrazides as Chemostimulants and Cytotoxic Agents” (Medicines, 2021):
Values joined by “and” are separate entries in the source; they are usually repeats but may differ in a detail not shown here. Identical values can stand only once.

Key:
[1] = test system: HCT 116 cells; test: Cytotoxicity assay, HCT 116 colon cancer cells; type: cell-based, human; conditions: for inhibition at 10 µM / inhibition at 100 µM: read-out: percentage inhibition of HCT 116 cells
Description: (§1) Evaluation of the cytotoxic properties of the compounds presented in Table 1, Table 2, Table 3 and Table 4 was undertaken using the procedure outlined in [7]. In brief, the HCT 116 cells were obtained from the ATCC and cultured in McCoy’s 5A medium. The CRL 1790 cells were obtained from the ATCC and cultured in Minimum Essential Medium. The MCF-7 and MDA-MBA-231 cells were obtained from the Saskatchewan Cancer Agency and cultured in DMEM. In each assay the culture medium was supplemented with 10% fetal bovine serum and 1% penicillin–streptomycin antibiotics. The time of the bioassays was 48 h, unless indicated otherwise. All determinations were carried out in triplicate on three different occasions.

[2] = test system: MCF-7 cells; test: Cytotoxicity assay, MCF-7 breast cancer cells; type: cell-based, human; conditions: Homo sapiens, MCF7, 48 h, read-out: percentage inhibition of MCF-7 cells
Description: as §1

[3] = test system: MDA-MB-231 cells; test: Cytotoxicity assay, MDA-MB-231 breast cancer cells; type: cell-based, human; conditions: Homo sapiens, MDA-MB-231, 48 h, read-out: percentage inhibition of MDA-MB-231 cells
Description: as §1

[4] = test system: Ramos cells; test: Cytotoxicity (CC50), Ramos cells; type: cell-based, human; conditions: for CC50: Homo sapiens, Ramos, 24 h incubation; for SI Ramos: average CC50 of non-malignant cells / CC50 Ramos
Method: (§2) In brief, the compounds were incubated for 24 h with the neoplasms, using DMEM and RPMI media. Three independent experiments were carried out.

[5] = test system: NALM-60 cells; test: Cytotoxicity (CC50), NALM-60 cells; type: cell-based, human; conditions: for CC50: Homo sapiens, 24 h incubation; for SI NALM-60: average CC50 of non-malignant cells / CC50 NALM-60
Method: as §2

[6] = test system: CEM cells; test: Cytotoxicity (CC50), CEM cells; type: cell-based, human; conditions: for CC50: Homo sapiens, CCRF-CEM, 24 h incubation; for SI CEM: average CC50 of non-malignant cells / CC50 CEM
Method: as §2

[7] = test system: HL-60 cells; test: Cytotoxicity (CC50), HL-60 cells; type: cell-based, human; conditions: for CC50: Homo sapiens, HL-60, 24 h incubation; for SI HL-60: average CC50 of non-malignant cells / CC50 HL-60
Method: as §2

[8] = test system: JURKAT cells; test: Cytotoxicity (CC50), Jurkat cells; type: cell-based, human; conditions: for CC50: Homo sapiens, Jurkat, 24 h incubation; for SI JURKAT: average CC50 of non-malignant cells / CC50 JURKAT
Method: as §2

[9] = test system: RAJI cells; test: Cytotoxicity (CC50), Raji cells; type: cell-based, human; conditions: for CC50: Homo sapiens, Raji, 24 h incubation; for SI RAJI: average CC50 of non-malignant cells / CC50 RAJI
Method: as §2

[10] = Cytotoxicity (CC50), non-malignant Hs27 foreskin cells; type: cell-based; conditions: human, 24 h incubation
Method: as §2

[11] = Cytotoxicity (CC50), non-malignant MCF-10A breast cells; type: cell-based; conditions: human, MCF-10A cells (non-malignant breast cells); 24 h incubation; read-out: Non-Malignant Cells CC50, MCF10A
Method: as §2

[12] = test system: Ramos, NALM-60, CEM, HL-60, JURKAT, RAJI cells; test: Cytotoxicity (CC50), average over six leukemia/lymphoma cell lines; type: cell-based, human; conditions: for CC50: Homo sapiens, average over six neoplastic cell lines
Method: as §2

[13] = Cytotoxicity (CC50), average over non-malignant cells; type: cell-based; conditions: human, Hs27 and MCF10A cells (non-malignant), average of both
Method: as §2

[14] = test system: CRL 1790 cells; test: Cytotoxicity assay, non-malignant CRL 1790 colon cells; type: cell-based; conditions: Homo sapiens, 48 h, Table 2, read-out: Non-Malignant CRL 1790 Cells IC50
Description: as §1

[15] = test system: HCT 116 cells; test: Chemosensitization of HCT 116 cells: 1m for 24 h, then 2a or 5-FU for a further 24 h; type: cell-based, human; conditions: for Reduction in Live Cells % 1m (48 h): DMSO figure minus compound figure
Description: as §1
The next phase of the investigation was to determine whether a representative compound in series 1 chemosensitizes HCT 116 cells to a 3,5-bis(benzylidene)-4-piperidone 2a. […] The colon cancer cells were incubated for 24 h with 1m, and then 2a was added and the incubation was continued for a further 24 h. Different concentrations of both 1m and 2a were employed, and the results are presented as entries 1–12 in Table 3. In addition, the effects of each of 1m, 2a, and 5-FU on HCT 116 cells (which are necessary for the evaluation of whether chemosensitivity occurs) were recorded, and are presented as entries 13–20 in Table 3.
The concentration of 1m in combination 4 is 5 µM, which after 48 h causes a percentage reduction of live cells to 86% (DMSO figure after 48 h, line 20) minus 75% (48 h, line 13), or 11%.
The concentration of 2a in combination 4 is 0.2 µM. This combination leads to a reduction of the percentage of live cells to 91% (DMSO figure after 24 h, line 20) minus 69%, or 22%.
The percentage reduction in live cells caused by a combination of 1m (5 µM) and 2a (0.2 µM), in the absence of chemosensitization, is 11% plus 22%, or 33%.
However, the percentage reduction in cells as indicated on line 4 is 86% (DMSO figure after 48 h) minus 12% (line 4, 48 h figure), or 74%.

[16] = test system: HCT 116 cells; test: Mitochondrial membrane potential of HCT 116 cells (TMRE dye); type: cell-based, human; conditions: IC50 concentration towards HCT 116, 48 h, Figure 4
Description: The method of Crowley et al. was employed in order to ascertain the effects of 1m, 7a, e, g, and 5-FU on the mitochondrial membrane potential of HCT 116 cells.
The decision was made to experiment with another method for determining the effect of compounds on the MMP. In this assay, the dye used was tetramethylrhodamine ethyl ester (TMRE), which can be found in the mitochondria of healthy cells. However, in apoptotic cells, the dye is released into the cytosol, leading to a decrease in the fluorescence signal.

[17] = test system: HCT 116 cells; test: ROS levels in HCT 116 cells (DCF-DA dye); type: cell-based, human; conditions: IC50 concentration towards HCT 116; DCF-DA fluorescence; Figure 5
Method: In this assay, the dye 2,7-dichlorofluorescein diacetate (DCF-DA) was used, and the effects of 1m, 7a, e, g, and 5-FU on the ROS levels in HCT 116 cells were determined by the method of [11].
The evaluation of 1m, […], e, and g for their capacity to increase the concentration of ROS in HCT 116 cells used 2′,7′-dichlorofluorescein diacetate. This dye is deacetylated in cells, and is converted into a non-fluorescent compound that reacts with ROS to form 2′,7′-dichlorofluorescein, which is fluorescent.

C=CC(=O)NNC(=O)c1ccc(Cl)cc1 [1d, N^2-Acryloyl-4-chlorobenzohydrazide]
inhibition at 10 µM ([1]; Homo sapiens, HCT-116, 48 h): -5.05 ± 2.36%
inhibition at 100 µM ([1]; Homo sapiens, HCT-116, 48 h): 82.3 ± 0.8%
inhibition at 10 µM [2]: 3.59 ± 2.08%
inhibition at 100 µM [2]: 55.9 ± 2.82%
inhibition at 10 µM [3]: -12.3 ± 4.05%
inhibition at 100 µM [3]: 49.1 ± 2.04%
CC50 [4]: 0.15 ± 0.02 µM
SI Ramos [4]: 57.9
CC50 [5]: 2.86 ± 0.55 µM
SI NALM-60 [5]: 3.04
CC50 [6]: 0.86 ± 0.07 µM
SI CEM [6]: 10.1
CC50 [7]: 2.9 ± 0.76 µM
SI HL-60 [7]: 3.00
CC50 [8]: 1.07 ± 0.09 µM
SI JURKAT [8]: 8.12
CC50 [9]: 2.71 ± 0.09 µM
SI RAJI [9]: 3.24
CC50 at 24 h [10]: 10.5 ± 0.05 µM
CC50 at 24 h [11]: 6.87 ± 0.48 µM
Avg SI, neoplastic cells [12]: 14.2
CC50 [12]: 1.76 µM
CC50 at 24 h [13]: 8.69 µM
melting point: 233 to 235 °C

C=CC(=O)NNC(=O)c1cc(Cl)ccc1Cl [1h, N^2-Acryloyl-2,5-dichlorobenzohydrazide]
inhibition at 10 µM ([1]; Homo sapiens, HCT-116, 48 h): 7.12 ± 1.51%
inhibition at 100 µM ([1]; Homo sapiens, HCT-116, 48 h): 87.7 ± 1.62%
inhibition at 10 µM [2]: 14.7 ± 3.68%
inhibition at 100 µM [2]: 54.2 ± 3.42%
inhibition at 10 µM [3]: -5.95 ± 4.21%
inhibition at 100 µM [3]: 122 ± 2.9%
CC50 [4]: 0.29 ± 0.05 µM
SI Ramos [4]: 47.2
CC50 [5]: 3.34 ± 0.43 µM
SI NALM-60 [5]: 4.10
CC50 [6]: 3.37 ± 0.18 µM
SI CEM [6]: 4.07
CC50 [7]: 5.62 ± 0.29 µM
SI HL-60 [7]: 2.44
CC50 [8]: 2.5 ± 0.24 µM
SI JURKAT [8]: 5.48
CC50 [9]: 5.5 ± 1.1 µM
SI RAJI [9]: 2.49
CC50 at 24 h [10]: 14.4 ± 0.24 µM
CC50 at 24 h [11]: 12.9 ± 0.95 µM
Avg SI, neoplastic cells [12]: 11.0
CC50 [12]: 3.44 µM
CC50 at 24 h [13]: 13.7 µM
melting point: 207 to 210 °C

C=CC(=O)NNC(=O)c1ccc(OC)c(OC)c1 [1m, N^2-Acryloyl-3,4-dimethoxylbenzohydrazide]
inhibition at 10 µM ([1]; Homo sapiens, HCT-116, 48 h): 46.9 ± 2.55%
inhibition at 100 µM ([1]; Homo sapiens, HCT-116, 48 h): 97.9 ± 1.92%
IC50 ([1]; Homo sapiens, HCT-116, Table 2, 48 h, read-out: Neoplastic Cells IC50, HCT 116): 15.3 ± 0.42 µM
SI (selectivity index) ([1]; IC50 CRL 1790 / IC50 HCT 116, Table 2): >6.54
inhibition at 10 µM [2]: -16.1 ± 3.51%
inhibition at 100 µM [2]: > 100%
inhibition at 10 µM [3]: -15.9 ± 1.96%
inhibition at 100 µM [3]: 50.5 ± 1.42%
IC50 [14]: > 100 µM
Reduction in Live Cells % 1m (48 h) ([15]; 1m 5 µM alone, 48 h): 11%
Reduction in Live Cells % 1m (48 h) ([15]; 1m 10 µM alone, 48 h): 29%
Reduction in Live Cells % 1m (48 h) ([15]; 1m 15 µM alone, 48 h): 54%
chemosensitization of HCT 116 cells ([15]; 1m 24 h before the cytotoxin, certain concentrations): sensitizes HCT 116 cells to the potent cytotoxin 2a, and also to the established anticancer drug 5-FU
Live Cells % ([15]; entry 13: 1m 5 µM alone, 24 h): 88 ± 2.82%
Live Cells % ([15]; entry 13: 1m 5 µM alone, 48 h): 75% and 75 ± 4.89%
Live Cells % ([15]; entry 14: 1m 10 µM alone, 24 h): 67 ± 1.67%
Live Cells % ([15]; entry 14: 1m 10 µM alone, 48 h): 57 ± 1.76%
Live Cells % ([15]; entry 15: 1m 15 µM alone, 24 h): 61 ± 3.49%
Live Cells % ([15]; entry 15: 1m 15 µM alone, 48 h): 32 ± 0.94%
effect on mitochondrial membrane potential of HCT 116 cells [16]: only 7e reduces the electrochemical potential of the mitochondria
effect on ROS levels in HCT 116 cells [17]: increase the fluorescence intensity
melting point: 163 to 165 °C
